# In US20120264735A1 (priority 2009, published 2012):
# Target: T1, c-Met kinase (recombinant c-Met) (Homo sapiens, UniProt P08581)
# T1 construct: 0.27 nM recombinant c-Met
# Test: In vitro kinase assay I (homogeneous time-resolved fluorescence tyrosine kinase assay)
# Format: biochemical
# Outline: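 Biotinylated peptide (0.5 μM) phosphorylated by 0.2 nM recombinant c-Met with 50 μM MgATP, 60 min at room temperature, pH 7.4, 5% DMSO. EDTA stop; HTRF read with Eu-anti-phosphotyrosine antibody and streptavidin-APC. IC50 from 4-parameter logistic fit.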
# T1 sequence (P08581 25-1390): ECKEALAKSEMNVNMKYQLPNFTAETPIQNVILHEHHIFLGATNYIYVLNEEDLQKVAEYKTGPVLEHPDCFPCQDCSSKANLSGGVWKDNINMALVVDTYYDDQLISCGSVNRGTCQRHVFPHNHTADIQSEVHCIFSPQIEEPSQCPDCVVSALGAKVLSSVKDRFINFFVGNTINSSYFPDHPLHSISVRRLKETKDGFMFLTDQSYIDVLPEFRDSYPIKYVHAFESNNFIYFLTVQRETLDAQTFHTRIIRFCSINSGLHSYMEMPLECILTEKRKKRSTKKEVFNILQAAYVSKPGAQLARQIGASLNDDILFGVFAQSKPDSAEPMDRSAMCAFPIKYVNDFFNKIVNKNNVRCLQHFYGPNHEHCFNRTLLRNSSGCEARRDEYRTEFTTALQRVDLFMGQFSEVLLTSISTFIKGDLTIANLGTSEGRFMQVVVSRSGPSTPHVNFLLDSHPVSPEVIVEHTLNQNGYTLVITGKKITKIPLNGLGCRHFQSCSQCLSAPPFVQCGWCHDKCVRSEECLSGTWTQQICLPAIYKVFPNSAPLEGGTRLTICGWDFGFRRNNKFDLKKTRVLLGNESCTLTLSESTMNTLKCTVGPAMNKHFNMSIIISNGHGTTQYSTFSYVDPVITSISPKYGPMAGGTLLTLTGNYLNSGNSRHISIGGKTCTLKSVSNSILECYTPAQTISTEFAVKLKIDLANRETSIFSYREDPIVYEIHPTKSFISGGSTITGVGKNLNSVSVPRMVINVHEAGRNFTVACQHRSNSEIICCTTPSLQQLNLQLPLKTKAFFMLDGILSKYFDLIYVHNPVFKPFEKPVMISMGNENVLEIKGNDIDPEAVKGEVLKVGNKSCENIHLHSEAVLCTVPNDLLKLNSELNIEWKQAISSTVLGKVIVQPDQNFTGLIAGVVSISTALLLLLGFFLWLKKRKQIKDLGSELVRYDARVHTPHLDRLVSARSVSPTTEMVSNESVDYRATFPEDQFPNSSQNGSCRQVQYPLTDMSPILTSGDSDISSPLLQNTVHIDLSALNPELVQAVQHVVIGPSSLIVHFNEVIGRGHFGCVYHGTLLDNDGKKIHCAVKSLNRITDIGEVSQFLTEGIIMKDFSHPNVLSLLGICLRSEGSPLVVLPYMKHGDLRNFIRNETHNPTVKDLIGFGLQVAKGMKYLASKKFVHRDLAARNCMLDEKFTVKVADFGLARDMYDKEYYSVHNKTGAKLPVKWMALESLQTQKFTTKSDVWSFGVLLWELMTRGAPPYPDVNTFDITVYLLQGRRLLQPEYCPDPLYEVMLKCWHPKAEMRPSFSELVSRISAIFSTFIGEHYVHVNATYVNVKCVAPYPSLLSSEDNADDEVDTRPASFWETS
row,Compound,IC50 [nM]
1,"CC(C)COC(=O)Nc1cccc(Cc2nn(-c3cccc(Br)c3)ccc2=O)c1 [Example 69, 2-methylpropyl (3-{[1-(3-bromophenyl)-4-oxo-1,4-dihydropyridazin-3-yl]methyl}phenyl)carbamate]",< 100
2,"CCn1cc(-n2ccc(=O)c(Cc3cccc(-c4ncc(OCc5ccccc5)cn4)c3)n2)cn1 [Example 71, 3-{3-[5-(benzyloxy)pyrimidin-2-yl]benzyl}-1-(1-ethyl-1H-pyrazol-4-yl)pyridazin-4(1H)-one]",< 100
3,"CCOc1cnc(-c2cccc(Cc3nn(-c4cccc(C#N)c4)ccc3=O)c2)nc1 [Example 72, 3-[3-[3-(5-ethoxypyrimidin-2-yl)benzyl]-4-oxopyridazin-1(4H)-yl]benzonitrile]",< 100
4,"Cn1cc(-n2ccc(=O)c(Cc3ccc4cnccc4c3)n2)cn1 [Example 74, 3-(isoquinolin-6-ylmethyl)-1-(1-methyl-1H-pyrazol-4-yl)pyridazin-4(1H)-one]",100 to 1000
5,"COCCCn1cnc(-c2cccc(Cc3nn(-c4cnn(C)c4)ccc3=O)c2)n1 [Example 77, 3-{3-[1-(3-methoxypropyl)-1H-1,2,4-triazol-3-yl]benzyl}-1-(1-methyl-1H-pyrazol-4-yl)pyridazin-4(1H)-one]",< 100
6,"CC(C)CCn1cnc(-c2cccc(Cc3nn(-c4cnn(C)c4)ccc3=O)c2)n1 [Example 78, 3-{3-[1-(3-methylbutyl)-1H-1,2,4-triazol-3-yl]benzyl}-1-(1-methyl-1H-pyrazol-4-yl)pyridazin-4(1H)-one]",< 100
7,"CCCn1cnc(-c2cccc(Cc3nn(-c4cc(F)cc(C#N)c4)ccc3=O)c2)n1 [Example 81, 3-fluoro-5-{4-oxo-3-[3-(1-propyl-1H-1,2,4-triazol-3-yl)benzyl]pyridazin-1(4H)-yl}benzonitrile]",< 100
8,"CCn1cnc(-c2cccc(Cc3nn(-c4cc(F)cc(C#N)c4)ccc3=O)c2)n1 [Example 83, 3-{3-[3-(1-ethyl-1H-1,2,4-triazol-3-yl)benzyl]-4-oxopyridazin-1(4H)-yl}-5-fluorobenzonitrile]",< 100
9,"CCn1cnc(-c2cccc(Cc3nn(-c4cccc(C#N)c4)ccc3=O)c2)n1 [Example 84, 3-{3-[3-(1-Ethyl-1H-1,2,4-triazol-3-yl)benzyl]-4-oxopyridazin-1(4H)-yl}benzonitrile]",< 100
10,"CCCn1cnc(-c2cccc(Cc3nn(-c4cccc(C#N)c4)ccc3=O)c2)n1 [Example 85, 3-{4-oxo-3-[3-(1-propyl-1H-1,2,4-triazol-3-yl)benzyl]pyridazin-1(4H)-yl}benzonitrile]",< 100
11,"CCCn1cnc(-c2cccc(Cc3nn(-c4cnn(CC)c4)ccc3=O)c2)n1 [Example 87, 1-(1-ethyl-1H-pyrazol-4-yl)-3-[3-(1-propyl-1H-1,2,4-triazol-3-yl)benzyl]pyridazin-4(1H)-one]",< 100
12,"CCn1cnc(-c2cccc(Cc3nn(-c4cnn(CCOCc5ccccc5)c4)ccc3=O)c2)n1 [Example 88, 1-{1-[2-(benzyloxy)ethyl]-1H-pyrazol-4-yl}-3-[3-(1-ethyl-1H-1,2,4-triazol-3-yl)benzyl]pyridazin-4(1H)-one]",100 to 1000
13,"CCCn1cnc(-c2cccc(Cc3nn(-c4cnn(CCOCc5ccccc5)c4)ccc3=O)c2)n1 [Example 89, 1-{1-[2-(benzyloxy)ethyl]-1H-pyrazol-4-yl}-3-[3-(1-propyl-1H-1,2,4-triazol-3-yl)benzyl]pyridazin-4(1H)-one]",100 to 1000
14,"CC(C)COC(=O)Nc1cccc(Cc2nn(-c3cnn(C4CCOCC4)c3)ccc2=O)c1 [Example 90, 2-methylpropyl [3-({4-oxo-1-[1-(tetrahydro-2H-pyran-4-yl)-1H-pyrazol-4-yl]-1,4-dihydropyridazin-3-yl}methyl)phenyl]carbamate]",100 to 1000
15,"CCOC(=O)Nc1cccc(Cc2nn(-c3cnn(C4CCOCC4)c3)ccc2=O)c1 [Example 91, ethyl [3-({4-oxo-1-[1-(tetrahydro-2H-pyran-4-yl)-1H-pyrazol-4-yl]-1,4-dihydropyridazin-3-yl}methyl)phenyl]carbamate]",100 to 1000
16,"CC(C)COC(=O)Nc1cccc(Cc2nn(-c3cnn(CC(F)(F)F)c3)ccc2=O)c1 [Example 93, 2-methylpropyl [3-({4-oxo-1-[1-(2,2,2-trifluoroethyl)-1H-pyrazol-4-yl]-1,4-dihydropyridazin-3-yl}methyl)phenyl]carbamate]",< 100
17,"CC(C)COC(=O)Nc1cccc(Cc2nn(-c3cnn(CC(C)C)c3)ccc2=O)c1 [Example 94, 2-methylpropyl [3-({1-[1-(2-methylpropyl)-1H-pyrazol-4-yl]-4-oxo-1,4-dihydropyridazin-3-yl}methyl)phenyl]carbamate]",100 to 1000
18,"CC(C)Cn1cc(-n2ccc(=O)c(Cc3cccc(NC(=O)OCCN4CCOCC4)c3)n2)cn1 [Example 96, 2-morpholin-4-ylethyl [3-({1-[1-(2-methylpropyl)-1H-pyrazol-4-yl]-4-oxo-1,4-dihydropyridazin-3-yl}methyl)phenyl]carbamate]",100 to 1000
19,"CCCOC(=O)Nc1cccc(Cc2nn(-c3cnn(CC4CCOCC4)c3)ccc2=O)c1 [Example 101, propyl [3-({4-oxo-1-[1-(tetrahydro-2H-pyran-4-ylmethyl)-1H-pyrazol-4-yl]-1,4-dihydropyridazin-3-yl}methyl)phenyl]carbamate]",100 to 1000
20,"CCOC(=O)Nc1cccc(Cc2nn(-c3cnn(C(C)C)c3)ccc2=O)c1 [Example 103, ethyl [3-({1-[1-(1-methylethyl)-1H-pyrazol-4-yl]-4-oxo-1,4-dihydropyridazin-3-yl}methyl)phenyl]carbamate]",< 100
21,"CCCOC(=O)Nc1cccc(Cc2nn(-c3cnn(C(C)C)c3)ccc2=O)c1 [Example 104, propyl [3-({1-[1-(1-methylethyl)-1H-pyrazol-4-yl]-4-oxo-1,4-dihydropyridazin-3-yl}methyl)phenyl]carbamate]",< 100
22,"CC(C)COC(=O)Nc1cccc(Cc2nn(-c3cnn(C(C)C)c3)ccc2=O)c1 [Example 105, 2-methylpropyl [3-({1-[1-(1-methylethyl)-1H-pyrazol-4-yl]-4-oxo-1,4-dihydropyridazin-3-yl}methyl)phenyl]carbamate]",< 100
23,"CCOC(=O)Nc1cccc(Cc2nn(-c3cnn(CCOC)c3)ccc2=O)c1 [Example 106, ethyl [3-({1-[1-(2-methoxyethyl)-1H-pyrazol-4-yl]-4-oxo-1,4-dihydropyridazin-3-yl}methyl)phenyl]carbamate]",100 to 1000

# Further lines, results first:
row,IC50 [nM],Compound
1,< 100,"CCn1cc(-n2ccc(=O)c(Cc3cccc(NC(=O)OCCOC)c3)n2)cn1 [Example 70, 2-methoxyethyl (3-{[1-(1-ethyl-1H-pyrazol-4-yl)-4-oxo-1,4-dihydropyridazin-3-yl]methyl}phenyl)carbamate]"
2,< 100,"COCCOC(=O)Nc1cccc(Cc2nn(-c3cc(F)cc(C#N)c3)ccc2=O)c1 [Example 73, 2-methoxyethyl (3-{[1-(3-cyano-5-fluorophenyl)-4-oxo-1,4-dihydropyridazin-3-yl]methyl}phenyl)carbamate]"
3,1000 to 3000,"Cc1nnc(-c2cccc(Cc3nn(-c4cnn(C)c4)ccc3=O)c2)s1 [Example 75, 1-(1-methyl-1H-pyrazol-4-yl)-3-[3-(5-methyl-1,3,4-thiadiazol-2-yl)benzyl]pyridazin-4(1H)-one]"
4,< 100,"CCCCn1cnc(-c2cccc(Cc3nn(-c4cnn(C)c4)ccc3=O)c2)n1 [Example 76, 3-[3-(1-butyl-1H-1,2,4-triazol-3-yl)benzyl]-1-(1-methyl-1H-pyrazol-4-yl)pyridazin-4(1H)-one]"
5,< 100,"CCCn1cnc(-c2cccc(Cc3nn(-c4ccc(F)c(F)c4)ccc3=O)c2)n1 [Example 80, 1-(3,4-difluorophenyl)-3-[3-(1-propyl-1H-1,2,4-triazol-3-yl)benzyl]pyridazin-4(1H)-one]"
6,< 100,"CCn1cnc(-c2cccc(Cc3nn(-c4ccc(F)c(F)c4)ccc3=O)c2)n1 [Example 82, 1-(3,4-difluorophenyl)-3-[3-(1-ethyl-1H-1,2,4-triazol-3-yl)benzyl]pyridazin-4(1H)-one]"
7,< 100,"CCn1cc(-n2ccc(=O)c(Cc3cccc(-c4ncn(CC)n4)c3)n2)cn1 [Example 86, 1-(1-ethyl-1H-pyrazol-4-yl)-3-[3-(1-ethyl-1H-1,2,4-triazol-3-yl)benzyl]pyridazin-4(1H)-one]"
8,100 to 1000,"CCOC(=O)Nc1cccc(Cc2nn(-c3cnn(CC(C)C)c3)ccc2=O)c1 [Example 92, ethyl [3-({1-[1-(2-methylpropyl)-1H-pyrazol-4-yl]-4-oxo-1,4-dihydropyridazin-3-yl}methyl)phenyl]carbamate]"
9,< 100,"COc1cnc(-c2cccc(Cc3nn(-c4cnn(CC(C)C)c4)ccc3=O)c2)nc1 [Example 95, 3-[3-(5-methoxypyrimidin-2-yl)benzyl]-1-[1-(2-methylpropyl)-1H-pyrazol-4-yl]pyridazin-4(1H)-one]"
10,100 to 1000,"CCOC(=O)Nc1cccc(Cc2nn(-c3cnn(CC4CCOCC4)c3)ccc2=O)c1 [Example 100, ethyl [3-({4-oxo-1-[1-(tetrahydro-2H-pyran-4-ylmethyl)-1H-pyrazol-4-yl]-1,4-dihydropyridazin-3-yl}methyl)phenyl]carbamate]"
11,100 to 1000,"CC(C)COC(=O)Nc1cccc(Cc2nn(-c3cnn(CC4CCOCC4)c3)ccc2=O)c1 [Example 102, 2-methylpropyl [3-({4-oxo-1-[1-(tetrahydro-2H-pyran-4-ylmethyl)-1H-pyrazol-4-yl]-1,4-dihydropyridazin-3-yl}methyl)phenyl]carbamate]"
12,100 to 1000,"CCCOC(=O)Nc1cccc(Cc2nn(-c3cnn(CCOC)c3)ccc2=O)c1 [Example 107, propyl [3-({1-[1-(2-methoxyethyl)-1H-pyrazol-4-yl]-4-oxo-1,4-dihydropyridazin-3-yl}methyl)phenyl]carbamate]"
13,< 100,"COCCn1cc(-n2ccc(=O)c(Cc3cccc(NC(=O)OCC(C)C)c3)n2)cn1 [Example 108, 2-methylpropyl [3-({1-[1-(2-methoxyethyl)-1H-pyrazol-4-yl]-4-oxo-1,4-dihydropyridazin-3-yl}methyl)phenyl]carbamate]"
